Paper PMC9785925, “Solubility and Thermal Stability of Thermotoga maritima MreB” (International Journal of Molecular Sciences, 2022)

Experiments:
Assay type in all cases: binding
Tm-MreB [1] = biological target: T1, Tm-MreB (Thermotoga maritima, UniProt Q9WZ57); experiment: TNP-ATP fluorescence titration, Hill fit
T1 construct: recombinant in E. coli ArcticExpress (DE3), Ni-NTA purified, His-tag removed with PreScission protease; native purification
T1 sequence (Q9WZ57 1-336): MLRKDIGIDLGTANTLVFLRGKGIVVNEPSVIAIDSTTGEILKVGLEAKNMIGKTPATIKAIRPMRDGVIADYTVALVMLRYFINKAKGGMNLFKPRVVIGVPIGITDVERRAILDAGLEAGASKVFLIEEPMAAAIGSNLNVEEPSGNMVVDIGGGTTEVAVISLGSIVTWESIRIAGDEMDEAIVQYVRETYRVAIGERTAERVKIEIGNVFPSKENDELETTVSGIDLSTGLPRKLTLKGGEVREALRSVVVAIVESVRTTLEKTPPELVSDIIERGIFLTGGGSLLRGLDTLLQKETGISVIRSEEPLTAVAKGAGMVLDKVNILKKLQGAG

Tm-MreB [2] = biological target: T1, Tm-MreB; experiment: thermal denaturation, tryptophan fluorescence; details: 2 mM ATP, salt-free (4 mM TRIS-HCl, 0.1 mM CaCl2, pH 7.5); printed as 90 °C≤
Text: thermal denaturation, tryptophan fluorescence on Tm-MreB

Tm-MreB [3] = biological target: T1, Tm-MreB; experiment: competition with TNP-ATP fluorescence, Langmuir single-site fit; details: salt-free (4 mM TRIS-HCl, 0.1 mM CaCl2, pH 7.5), 20 µM protein, 1 µM TNP-ATP; competitive; unreliable (text and figure legend disagree)
Text: competition with TNP-ATP fluorescence, Langmuir single-site fit on Tm-MreB | we were able to determine the affinity of ATP for Tm-MreB

For `Nc1ncnc2c1ncn2[C@@H]1O[C@H](COP(=O)(O)OP(=O)(O)OP(=O)(O)O)[C@H]2OC3(O[C@H]21)C([N+](=O)[O-])=CC(=[N+]([O-])[O-])C=C3[N+](=O)[O-]` (stereo partly drawn) [TNP-ATP], the Kd (Tm-MreB [1]) was 3.69 ± 0.04 µM.

For `Nc1ncnc2c1ncn2[C@@H]1O[C@H](COP(=O)(O)OP(=O)(O)OP(=O)(O)O)[C@@H](O)[C@H]1O` [ATP], the “This Work (Tryptophan Signal)” value (Tm-MreB [2]) was > 90 °C and the affinity (Tm-MreB [3]) was ~ 2 µM.
